Results: patent US11331102B2, “Purified pentagalloyl glucose and devices for delivery” (Nectero Medical, Inc., priority 2018, dated 2022)

Assay: studies of the concentration at which PGG of a given purity may be safely delivered
Settings: depends on purity of the PGG; toxic impurities gallic acid and methyl gallate
Excerpt: The concentrations of PGG which may be safely delivered to a patient may be generally proportional to the purity of the PGG. For example, gallic acid, depicted in FIG. 1B, and methyl gallate, depicted in FIG. 1C, are common cytotoxic impurities which may be removed from a source batch of PGG during the purification process. Eliminating the presence of or reducing the concentration of toxic impurities from the delivered PGG may allow higher concentrations of the PGG to be delivered due to the mitigation of the toxic side effects of impurities commonly found in isolated PGG. For instance, studies have shown that substantially 100% pure PGG may be safely delivered at concentrations up to approximately 0.330% (w/v), 95% pure PGG may be safely delivered at concentrations up to approximately 0.125% (w/v), and 85% pure PGG may be safely delivered at concentrations up to approximately 0.06% (w/v). Delivery of PGG in higher concentrations may enhance the amount of uptake of PGG by the target tissue which may increase the efficacy of the PGG treatment. Delivery of PGG in higher concentrations may increase the rate of uptake of PGG by the tissue allowing the same amount of uptake in shorter delivery times. Reducing or minimizing the delivery time may be advantageous for reducing the overall treatment time, and particularly the duration of time for which a blood vessel, such as the aorta, is potentially occluded, as described elsewhere herein. Minimization of the treatment time and particularly the duration of blood occlusion may improve the safety and convenience of the treatment procedure and improve patient outcomes.

Substance	concentration up to which PGG may be safely delivered
1,2,3,4,6-pentagalloyl glucose [85% pure PGG]	≤ 0.06 % (w/v)
1,2,3,4,6-pentagalloyl glucose [95% pure PGG]	≤ 0.125 % (w/v)
1,2,3,4,6-pentagalloyl glucose [substantially 100% pure PGG]	≤ 0.330 % (w/v)
